In the NIST ThermoML archive (doi:10.1021/je400134d):
± gives the expanded uncertainty stated by the source.

Settings: 101.33 kPa, Liquid; for speed of sound: Pulse-echo method; for mass density: Vibrating tube method

| Structure (SMILES) | speed of sound (293.15 K) [m/s] | mass density (293.15 K) [kg/m3] | speed of sound (298.15 K) [m/s] | mass density (298.15 K) [kg/m3] | speed of sound (303.15 K) [m/s] | mass density (303.15 K) [kg/m3] |
| --- | --- | --- | --- | --- | --- | --- |
| CCCCCCC [heptane] | 1150.9 ± 0.9 | 683.845 ± 0.18 | 1129.6 ± 0.9 | 679.603 ± 0.18 | 1111.2 ± 0.9 | 675.532 ± 0.19 |
| Cc1ccccc1 [toluene] | 1325.8 ± 0.9 | 866.98 ± 0.1 | 1304.4 ± 0.8 | 862.295 ± 0.11 | 1283.7 ± 0.8 | 857.725 ± 0.11 |
| CNc1ccccc1 [N-methylaniline] | 1582.7 ± 2.2 | 986.444 ± 0.82 | 1564.7 ± 2.2 | 982.487 ± 0.82 | 1545.8 ± 2.2 | 978.541 ± 0.81 |
| C1CCCCC1 [cyclohexane] | 1278 ± 1 | 778.706 ± 0.15 | 1253.6 ± 0.9 | 774.018 ± 0.16 | 1229.9 ± 0.9 | 769.297 ± 0.16 |
